Measurements taken from patent US8715681B2, “Minimal motifs of linear B-cell epitopes in L1 protein from human papillomavirus type 58 and their applications” (Hengsun Pharmaceutical Technology Co. Ltd., priority 2012, dated 2014).
Ends that are not written are not given here.

System: rabbit serum raised against r-L1C
Assay: Epitope mapping of 18-mer peptide-GST188 fusion proteins by Western blotting with anti-r-L1C rabbit serum
Assay type: binding
Settings: 18-mer peptides P25-P60 fused with GST188
Excerpt: 1. The clone of HPV 58 genome was purchased from commercial resource (20). With regular PCR method, the N terminal and C terminal of full-length HPV58-L1 cDNA were amplified from the HPV 58 genome we purchased and then were reconstructed into pRSET-C fusion expression plasmid. The expressed r-L1N^36-233 and r-L1C^226-524 proteins were purified from E. coli, and finally used as antigen to immunize three New Zealand white rabbits to prepare rabbit antisera against r-L1N^36-233 or r-L1C^226-524, respectively.
2. Previously we have constructed a fusion expression plasmid pXXGST-1 specially used for 8/18-mer short peptide biosynthesis in epitope mapping. In this plasmid, the macromolecule protein carrier was a truncated glutathione S-transferases (GST) with 188 residues (GST188) (China Patent NO.: 200710173305.2; 18). DNA recombinant technology was employed to express two sets of 18-mer peptides overlapping each other by 10 residues covering the domains of L1N^36-233 and L1C^226-524 fused with GST188, respectively. Specifically the DNA fragments encoding different short peptide were inserted into pXXGST-1 plasmid after annealing of chemically synthesized plus and minus DNA strands to double-strand DNA. […]

P27: biosynthetic 18-mer peptide of HPV58 L1 fused with GST188; contains DVPID (NKSDVPIDICNSTCKYPD; not fully specified (N-terminus); cysteine pairing not given here)
reactivity in Western blotting: reactive
